From publication PMC3726336, “Product inhibition of cellulases studied with ^14C-labeled cellulose substrates” (Biotechnology for Biofuels, 2013)
Like-named read-outs stand apart in the source and are kept apart here.

Columns and labels:
[1] = target: TaCel7A (Thermoascus aurantiacus, UniProt A7WNU2); test: Inhibition of synergistic hydrolysis of 14C-BC by TaCel7A (supplemented with EG TrCel5A); type: biochemical; details: 14C-BC substrate, read-out: IC50 for cellobiose
Experimental: To study the cellobiose inhibition of GH7 CBHs, the synergistic hydrolysis of ^14C-BC in the presence of added cellobiose was followed (Figure 3, Additional file 1: Figures S1 and S2). Because the cellobiose inhibition of the EG TrCel5A is much weaker than that of GH7 CBHs, the inhibition of synergistic hydrolysis apparently reflects the inhibition of CBH. The strength of cellobiose inhibition was analyzed using plots of (DCB/DCB=0) versus [cellobiose], where DCB and DCB=0 represent the degree of conversion of ^14C-BC in the presence and absence of cellobiose, respectively (Figure 4, Additional file 1: Figure S3). […]
where [CB] is the concentration of cellobiose; [^14CBC] is the concentration of ^14C-BC used in the experiment; and C1, C2 and H are empirical constants. Equation 5 differs from Equation 1 by the presence of constant H. H was included to improve the fit and is a constant that accounts for the background radioactivity (the degree of conversion that is independent of CBH). The degree of conversion resulting from the activity of the EG was measured in a separate experiment (Additional file 1: Figure S4) and was subtracted from the degree of conversion resulting from the synergistic hydrolysis. […] Provided with the values of C1, C2 and H, the value of IC50 was calculated as follows: […]

[2] = target: CtCel7A (Chaetomium thermophilum, UniProt A7WNU1); test: Cellobiose inhibition of MUL hydrolysis by CtCel7A; type: biochemical; details: MUL substrate (5 μM)
Source text: The cellobiose inhibition of GH7 CBHs is most often studied on low-Mw model substrates. However, it has been shown that the inhibition of CBHs acting on low-Mw substrates appears to be much stronger than that on cellulose substrates. The Ki values for cellobiose inhibition of GH7 CBHs measured on low-Mw substrates are in the micromolar range [44, 51, 52], whereas those measured on cellulose are in the low- to high-millimolar range [28, 31, 32]. […] Unfortunately, the inhibition of this enzyme on cellulose has not been studied. We also studied the cellobiose inhibition of GH7 CBHs acting on MUL. The initial rates of MUL hydrolysis measured in the presence and absence of added cellobiose were first analyzed according to Equation 1, and the IC50 values were found using Equation 2. […] The inhibition of MUL hydrolysis is attributable to the binding of cellobiose to the product sites (+1/+2) of TrCel7A [52]. […]
For the inhibition of enzyme acting on the low-Mw substrate, the initial rates of the hydrolysis of MUL in the presence and absence of added cellobiose were followed. […] Reactions were stopped by the addition of NH3 (final concentration 0.1 M), and the released 4-methylumbelliferone was quantified by fluorescence using excitation and emission wavelengths of 360 nm and 450 nm, respectively.

CtCel7A, sequence (A7WNU1 entry or part of it): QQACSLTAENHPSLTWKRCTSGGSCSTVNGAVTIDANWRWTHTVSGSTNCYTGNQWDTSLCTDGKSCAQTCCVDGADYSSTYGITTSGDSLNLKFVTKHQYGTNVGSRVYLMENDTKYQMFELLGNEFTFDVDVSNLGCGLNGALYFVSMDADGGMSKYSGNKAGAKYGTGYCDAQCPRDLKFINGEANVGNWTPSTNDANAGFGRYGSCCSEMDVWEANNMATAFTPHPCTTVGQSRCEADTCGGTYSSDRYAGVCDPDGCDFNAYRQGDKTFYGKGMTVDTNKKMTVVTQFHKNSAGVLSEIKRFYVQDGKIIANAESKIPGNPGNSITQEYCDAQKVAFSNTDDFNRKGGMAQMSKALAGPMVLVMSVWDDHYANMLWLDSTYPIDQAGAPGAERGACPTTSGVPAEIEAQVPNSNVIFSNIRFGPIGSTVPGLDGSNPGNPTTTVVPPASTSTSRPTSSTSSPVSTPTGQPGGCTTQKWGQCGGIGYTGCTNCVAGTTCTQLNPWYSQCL
TaCel7A, sequence (A7WNU2 entry or part of it): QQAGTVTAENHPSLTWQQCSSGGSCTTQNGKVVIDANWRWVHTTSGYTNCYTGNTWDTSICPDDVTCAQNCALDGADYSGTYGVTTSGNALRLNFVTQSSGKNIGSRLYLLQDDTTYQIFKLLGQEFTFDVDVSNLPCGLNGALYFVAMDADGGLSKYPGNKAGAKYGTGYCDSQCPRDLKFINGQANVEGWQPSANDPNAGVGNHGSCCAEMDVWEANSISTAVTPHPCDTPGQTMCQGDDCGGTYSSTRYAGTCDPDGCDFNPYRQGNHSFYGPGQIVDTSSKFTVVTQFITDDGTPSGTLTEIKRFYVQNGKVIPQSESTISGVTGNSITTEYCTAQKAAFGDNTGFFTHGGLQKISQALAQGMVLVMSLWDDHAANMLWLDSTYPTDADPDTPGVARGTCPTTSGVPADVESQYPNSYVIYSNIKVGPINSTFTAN

Q: Which results are given for `O=C[C@H](O)[C@@H](O)[C@H](O[C@@H]1O[C@H](CO)[C@@H](O)[C@H](O)[C@H]1O)[C@H](O)CO` [cellobiose, Cellobiose]?
A: IC50 ([1]; 35°C): 580 ± 350 µM; IC50 ([1]; 50°C): 930 ± 100 µM; Ki ([2]; 35°C): 110 µM; Ki ([2]; 50°C): 346 µM
